These results are taken from PubChem BioAssay (NCI).

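Five compound concentrations were applied to cells in 96-well plates for 48 hours; endpoints were derived by simple linear interpolation of the resulting dose-response curve. Definition used: TGI = concentration required for complete inhibition of growth.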

Test systems include OVCAR-8 ovarian; NCI-H460 lung; HT29 colon; BT-549 breast; SK-OV-3 ovarian; MDA-N; RXF 393 renal; M14 melanoma; OVCAR-5 ovarian; NCI-H226 lung.
Assay in all cases: DTP human tumour cell line panel, 48 h

Take `S=C1C(=Nc2ccccc2)N(c2ccccc2)/C(=N\c2cccc[n+]2Cc2ccccc2)N1c1ccccc1`: the TGI – broadly, the concentration at which net growth stops – in the test with OVCAR-8 ovarian was 38.7 µM; in the test with NCI-H460 lung, 50 µM; with HT29 colon it was 43 µM; with BT-549 breast, 27.4 µM; in the test on SK-OV-3 ovarian, 42.6 µM; in the test with MDA-N, 25 µM. In addition, the TGI was 27.3 µM in the test on RXF 393 renal, 27.5 µM in the test on M14 melanoma, 32.7 µM in the test on OVCAR-5 ovarian and 40.4 µM in the test on NCI-H226 lung.
As for `CC(c1ccccc1)n1cncc1C(=O)NN1CCN(C)CC1` (stereo not given), the TGI with OVCAR-8 ovarian, in the test on NCI-H460 lung, with HT29 colon, in the test on BT-549 breast, in the test with SK-OV-3 ovarian and with MDA-N was more than 10 µM each time. Also, the TGI in the test with RXF 393 renal, in the test with M14 melanoma, with OVCAR-5 ovarian and in the test on NCI-H226 lung was more than 10 µM in each case.
